19 compounds from patent publication US8263584B2, “Imidazopyridines” (Hoffmann-La Roche Inc., priority 2009, dated 2012) can be followed below.

The structures appear in SMILES notation.

The assay concerns the target T1, PDE10A2 (Homo sapiens, UniProt Q9Y233).
T1 construct: residues serine 449 to aspartate 789; His6 (H6) with Gateway linker and thrombin cleavage site (N, cleaved yes); made in house; host or cells: E. coli BL21(DE3) pLysS
The assay can be described thus: PDE10A2 inhibition, Scintillation Proximity Assay (SPA). In kind it is biochemical. The note with it: catalytic domain of human PDE10A2 (S449-D789), 0.25 nM enzyme, 50 nM cGMP and 50 nM [3H]-cGMP, 30 minutes at room temperature. As to the method: The following tests were carried out in order to determine the activity of the compounds of the present invention. PDE10 activity of the compounds of the present invention is determined using a Scintillation Proximity Assay (SPA)-based method similar to the one previously described (Fawcett, L. et al., Proc Natl Acad Sci USA (2000) 97(7):3702-3707). PDE10A1 and PDE10A2 are two splice variants of PDE10A. There are these 2 splice variants known, which differ in the N-terminal part of the protein. The catalytic domains of PDE10A1 and PDE10A2 are identical. The assay for PDE10A2 described below is therefore also representative for PDE10A1 and also for PDE10A in general. The PDE10A2 assay was performed in a two step procedure in 96-well micro titer plates. […] A range of concentrations of the potential inhibitor was used to generate data for calculating the concentration of inhibitor resulting in 50% of the effect (e.g. IC50, the concentration of the competitor inhibiting PDE10A2 activity 50%). Non-specific activity was tested without the enzyme. The reaction was initiated by addition of the substrate solution (cGMP and [^3H]-cGMP) and allowed to progress for 30 minutes at room temperature. The reaction was terminated by transferring 50 μl of the reaction mixture into an OptiPlate (Perkin Elmer) containing 25 μl of YSi-SPA scintillation beads (GE Healthcare) in 18 mM zinc sulphate solution (stop reagent). After 1 h under shaking, the plate was centrifuged one minute at 1000 rpm to allow beads to settle. Afterwards, radioactive counts were measured on a Perkin Elmer TopCount Scintillation plate reader. The catalytic domain of human PDE10[…], was amplified by PCR using cDNA (Origene) and the oligonucleotides 5'-[…]00001:character} […] no. 1) (with AttB1 recombination site in bold and thrombin protease cleavage site in […] no. 2) (with AttB2 recombination site in bold) which conferred Gateway recombination sites. The PCR product was used in a BP recombination reaction with pDONR221 to generate […]([…]-[…]) which was DNA sequence verified and then used in an LR recombination reaction with a Gateway modified version of pET11a. […] About 30% of the protein was in the soluble fraction of the cell homogenate. The protein was purified using sequential chromatography on Ni-NTA and […]. After thrombin digest at room temperature a […]/HiTrap Benzamindin chromatography removed impurities, uncleaved protein and thrombin. Final purification of PDE10A2([…]-[…]) was performed on a Superdex 75 size exclusion chromatography equilibrated with 25 mM HEPES pH 8.4, 0.15 M NaCl. The yield of pure protein was 2 mg/liter of culture volume is relatively low. The purity of the protein was >95%, monomeric and monodisperse as shown by SDS-PAGE, HPLC and analytical ultracentrifugation.

T1 sequence (Q9Y233 715-1055): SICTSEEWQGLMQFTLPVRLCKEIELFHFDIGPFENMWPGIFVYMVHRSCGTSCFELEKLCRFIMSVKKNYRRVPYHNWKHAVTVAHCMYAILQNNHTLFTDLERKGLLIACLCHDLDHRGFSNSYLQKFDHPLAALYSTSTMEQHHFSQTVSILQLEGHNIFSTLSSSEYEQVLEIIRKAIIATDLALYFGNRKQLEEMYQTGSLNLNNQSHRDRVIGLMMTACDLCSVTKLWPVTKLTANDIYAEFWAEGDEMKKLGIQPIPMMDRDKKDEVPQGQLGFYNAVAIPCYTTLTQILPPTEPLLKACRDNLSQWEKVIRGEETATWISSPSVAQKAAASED

Consider `CN1CCN(C(=O)c2cnn(C)c2C(=O)Nc2ccn3cc(-c4ccccc4)nc3c2)CC1` [Example 52, 2-Methyl-4-(4-methyl-piperazine-1-carbonyl)-2H-pyrazole-3-carboxylic acid (2-phenyl-imidazo[1,2-a]pyridin-7-yl)-amide], for which the half-maximal inhibitory concentration (IC50) turned out to be 4.7 nM.

Regarding `Cn1ncc(C(=O)N2CCOCC2CO)c1C(=O)Nc1ccn2cc(-c3ccccc3)nc2c1` (stereo not shown) [Example 53, 4-(3-Hydroxymethyl-morpholine-4-carbonyl)-2-methyl-2H-pyrazole-3-carboxylic acid (2-phenyl-imidazo[1,2-a]pyridin-7-yl)-amide], the IC50 was 3.3 nM.

Consider `Cn1ncc(C(=O)Nc2ccncc2)c1C(=O)Nc1ccn2cc(-c3ccccc3)nc2c1` [Example 55, 2-Methyl-2H-pyrazole-3,4-dicarboxylic acid 3-[(2-phenyl-imidazo[1,2-a]pyridin-7-yl)-amide]-4-pyridin-4-ylamide], for which the IC50 came to 4.3 nM.

Turning to `CN(C)C1CCN(C(=O)c2cnn(C)c2C(=O)Nc2ccn3cc(-c4ccccc4)nc3c2)C1` (stereo not shown) [Example 59, 4-(3-Dimethylamino-pyrrolidine-1-carbonyl)-2-methyl-2H-pyrazole-3-carboxylic acid (2-phenyl-imidazo[1,2-a]pyridin-7-yl)-amide], the IC50 is 0.6 nM.

Regarding `CCn1ncc(C(=O)N2CCC2)c1C(=O)Nc1ccn2cc(-c3ccccc3)nc2c1` [Example 62, 4-(Azetidine-1-carbonyl)-2-ethyl-2H-pyrazole-3-carboxylic acid (2-phenyl-imidazo[1,2-a]pyridin-7-yl)-amide], the IC50 is 12.6 nM.

For the compound `CNC(=O)c1cn[nH]c1C(=O)Nc1ccn2cc(-c3ccccc3)nc2c1` [Example 65, 2H-Pyrazole-3,4-dicarboxylic acid 4-methylamide 3-[(2-phenyl-imidazo[1,2-a]pyridin-7-yl)-amide]], the half-maximal inhibitory concentration (IC50) stood at 41.8 nM.

For the compound `Cn1ncc(C(=O)NC(CO)CO)c1C(=O)Nc1ccn2cc(-c3ccccc3)nc2c1` [Example 66, 2-Methyl-2H-pyrazole-3,4-dicarboxylic acid 4-[(2-hydroxy-1-hydroxymethyl-ethyl)-amide]3-[(2-phenyl-imidazo[1,2-a]pyridin-7-yl)-amide]], the concentration for half-maximal inhibition (IC50) is 2 nM.

With `Cn1ncc(C(=O)N2CCC2)c1C(=O)Nc1cc2nc(-c3ccccc3)cn2cc1Br` [Example 67, 4-(Azetidine-1-carbonyl)-2-methyl-2H-pyrazole-3-carboxylic acid (6-bromo-2-phenyl-imidazo[1,2-a]pyridin-7-yl)-amide], the IC50 was 0.1 nM.

Regarding `Cn1ncc(C(=O)N2CCOCC2)c1C(=O)Nc1cc2nc(-c3ccccc3)cn2cc1C#N` [Example 69, 2-Methyl-4-(morpholine-4-carbonyl)-2H-pyrazole-3-carboxylic acid (6-cyano-2-phenyl-imidazo[1,2-a]pyridin-7-yl)-amide], the IC50 stood at 1 nM.

On to `Cn1ncc(C(=O)N2CCC2)c1C(=O)Nc1cc2nc(-c3ccccc3)cn2cc1Cl` [Example 70, 4-(Azetidine-1-carbonyl)-2-methyl-2H-pyrazole-3-carboxylic acid (6-chloro-2-phenyl-imidazo[1,2-a]pyridin-7-yl)-amide], for which the half-maximal inhibitory concentration (IC50) was determined as 0.3 nM.

Turning to `Cn1ncc(C(=O)N2CCOCC2)c1C(=O)Nc1cc2nc(-c3ccccc3)cn2cc1Cl` [Example 72, 2-Methyl-4-(morpholine-4-carbonyl)-2H-pyrazole-3-carboxylic acid (6-chloro-2-phenyl-imidazo[1,2-a]pyridin-7-yl)-amide], the 50% inhibitory concentration (IC50) is 0.8 nM.

As for `Cn1ncc(C(=O)N2CCC2)c1C(=O)Nc1cc2nc(-c3ccccc3)cn2cc1C1CC1` [Example 74, 4-(Azetidine-1-carbonyl)-2-methyl-2H-pyrazole-3-carboxylic acid (6-cyclopropyl-2-phenyl-imidazo[1,2-a]pyridin-7-yl)-amide], the IC50 came to 0.7 nM.

As to `Cn1ncc(C(=O)N2CCOCC2)c1C(=O)Nc1cc2nc(-c3ccccc3)cn2cc1C1CC1` [Example 75, 2-Methyl-4-(morpholine-4-carbonyl)-2H-pyrazole-3-carboxylic acid (6-cyclopropyl-2-phenyl-imidazo[1,2-a]pyridin-7-yl)-amide], the IC50 was 1 nM.

For `Cn1ncc(Cl)c1C(=O)Nc1cc2nc(-c3ccccc3)cn2cn1` [Example 80, 4-Chloro-2-methyl-2H-pyrazole-3-carboxylic acid (2-phenyl-imidazo[1,2-c]pyrimidin-7-yl)-amide], the IC50 was 7 nM.

Regarding `CN(C)C(=O)c1cnn(C)c1C(=O)Nc1cc2nc(-c3ccccc3)cn2cn1` [Example 82, 2-Methyl-2H-pyrazole-3,4-dicarboxylic acid 4-dimethylamide 3-[(2-phenyl-imidazo[1,2-c]pyrimidin-7-yl)-amide]], the IC50 was 0.1 nM.

Consider `CNC(=O)c1cnn(C)c1C(=O)Nc1cc2nc(-c3ccccc3)cn2cn1` [Example 84, 2-Methyl-2H-pyrazole-3,4-dicarboxylic acid 4-methylamide 3-[(2-phenyl-imidazo[1,2-c]pyrimidin-7-yl)-amide]], for which the half-maximal inhibitory concentration (IC50) was 2.7 nM.

Turning to `COCCCNC(=O)c1cnn(C)c1C(=O)Nc1cc2nc(-c3ccccc3)cn2cn1` [Example 85, 2-Methyl-2H-pyrazole-3,4-dicarboxylic acid 4-[(3-methoxy-propyl)-amide]3-[(2-phenyl-imidazo[1,2-c]pyrimidin-7-yl)-amide]], the IC50 was 0.6 nM.

Take `Cn1ncc(C(=O)N2CCC2)c1C(=O)Nc1cc2nc(-c3ccccc3)cn2cn1` [Example 86, 4-(Azetidine-1-carbonyl)-2-methyl-2H-pyrazole-3-carboxylic acid (2-phenyl-imidazo[1,2-c]pyrimidin-7-yl)-amide]: the concentration for half-maximal inhibition (IC50) came out at 0.3 nM.

For the compound `Cn1ncc(C(=O)N2CCOCC2)c1C(=O)Nc1cc2nc(-c3ccccc3)cn2cn1` [Example 89, 2-Methyl-4-(morpholine-4-carbonyl)-2H-pyrazole-3-carboxylic acid (2-phenyl-imidazo[1,2-c]pyrimidin-7-yl)-amide], the IC50 amounted to 0.1 nM.
